# Assay results from publication PMC8370991, “Structural basis for the inhibition of HTLV-1 integration inferred from cryo-EM deltaretroviral intasome structures” (Nature Communications, 2021).
# Read-outs that look alike come from different tables or passages of the source.
# Key:
# [1] = target: T1, recombinant HTLV-1 IN (Human T-cell leukemia virus 1, UniProt P03362); assay: In vitro integration strand transfer assay with HTLV-1 IN; assay type: biochemical; settings: for HTLV-1 IN strand transfer activity (No drug = 100): INSTI at 634 nM
# T1 construct: made in house
# Description: We used in vitro strand transfer assays to screen this small molecule library for its ability to inhibit recombinant HTLV-1 IN. The enzyme was incubated with an oligonucleotide vDNA donor mimic in the presence or absence of INSTIs and was allowed to react with a supercoiled plasmid mimicking target DNA. During the screening, the concentration of each compound was adjusted to 634 nM to provide optimal resolution of efficacy between well- and under-performing compounds.
# The donor vDNA that mimics the 3′-processed LTR of HTLV-1 or STLV-1 DNA was preassembled by annealing the U5_S20Q_UP and U5_S20Q_B or MarB43_U5_S30UP or MarB43_U5_S30B oligonucleotides, respectively (Supplementary Table 4) in 100 mM Tris pH 7.4, 400 mM NaCl. For HTLV-1 IN, strand transfer reactions were conducted in a solution of 24.3 mM PIPES pH 6.0, 138.4 mM NaCl, 16.6 mM MgCl2, 5.8 μM ZnCl2, 12.7 mM DTT, 0.53 μM donor DNA and 4 μg of HTLV-1 IN[9],[39]. In brief, the reaction was incubated at RT for 15 min in the presence of an INSTI or dimethyl sulfoxide (DMSO) control and the reaction was started by the addition of 300 ng of pGEM-9Zf(-) supercoiled plasmid DNA. The reaction was incubated for 1 h at 37 °C and stopped by adding 0.5% SDS and 25 mM ethylenediaminetetraacetic acid (EDTA), pH 8.0.
# Proteins were degraded by incubation with 30 μg of proteinase K (Roche) at 37 °C for 1 h. DNA was precipitated at −20 °C overnight in the presence of ethanol supplemented with 20 μg of glycogen and then resuspended in 1.5× agarose loading dye. The DNA products were separated by electrophoresis through 1.5% agarose gel and stained with ethidium bromide and imaged using the BioRad GelDox XR + imager. The data were analysed and the IC50 calculated as previously described. In brief, the DNA band that corresponds to the concerted integration product was quantified by densitometry in ImageLab 4.1 (Bio-Rad). All experiments were done in triplicate. Quantified data points were fitted to dose–response curves in Prism 9. The cumulative standard deviation for each drug was calculated as an average of the upper limit and lower limit values: Lowerlimit=IC50/10^logSE(IC50) Upperlimit=IC50×10^logSE(IC50)
# [2] = tested on: HTLV-1; assay: Alu-qPCR of integrated provirus in HTLV-1 infected Jurkat cells; assay type: cell-based; settings: normalized to GAPDH
# Description: The HTLV-1 cell-to-cell infection was performed as previously described; Jurkat T cells were counted and diluted in complete RPMI to a final concentration of 0.25 × 10^6 cells/ml and pre-treated with INSTI drugs (final concentration ranging from 0.2 pM to 2 μM) or DMSO as a control for 24 h. MT-2 cells were resuspended in RPMI at a concentration of 2 × 10^6 cells/ml and subjected to a nonlethal γ-radiation dose of 400 Gy. Cells were resuspended at a concentration of 2 × 10^6 cells/ml in serum-free RPMI supplemented with the corresponding INSTI drug. Co-culture of 0.5 × 10^6 for each cell line was carried out for 16 h, after which cells were washed in PBS and resuspended in 1 ml of depletion buffer (PBS, 0.1% FBS and 2 mM EGTA). MT-2 cells were depleted from the culture by means of anti-CD25 magnetic beads (DynabeadsTM CD25, Thermo Fisher). Depletion efficiency was confirmed via flow cytometry as described previously. Jurkat cells were cultured for 2 weeks in complete RPMI supplemented with the drugs and genomic DNA was extracted (DNeasy kit, Qiagen) and stored at −20 °C for subsequent analysis. All the experiments were done in triplicate.
# The PVL was measured as previously described[9],[53],[54]. Jurkat genomic DNA was quantified and diluted to a concentration of 5 ng/μL. Real-time qPCR analysis were conducted on 20 ng of gDNA to measure the level of HTLV-1 tax and gapdh genes (Supplementary Table 5). For the standard curve, the gDNA from an HTLV-1 naturally infected T-cell clone (clone 11.50, courtesy of professor Charles Bangham), which has one copy of tax and two of gapdh, was used. The integrated provirus copy number was calculated as follows: (tax copy numbers)/(2×gapdh copy number)[53], and normalised to the DMSO-treated control which was set to 100%. The PVL data were fitted to a dose–response curve in Prism 7 and the EC50 was calculated. Alu-PCR was performed as previously described in ref. [55]. In brief, the first PCR reaction was done with Phusion polymerase starting from 80 ng of gDNA using the ALU-specific primers (Alu-F/Gag-R). The nested PCR was run diluting the amplificated product 1:50. The reaction was done as a qPCR using Gag-specific primers (Gag-R/Gag-F) and the Luna SYBR dye reaction mix (New England Biolabs). The integrated provirus copy numbers were normalised to GAPDH and Jurkat cells treated with DMSO and infected with HTLV-1 were set to 100%. Experiments were done in triplicate. […]
# Supplementary Figure 6 | Integrated provirus was quantified by Alu-qPCR.
# Values were normalized to GAPDH. Uninfected represents uninfected Jurkat cells, acting as negative control. Condition without any drug present (DMSO) was set as 100%. Mean values and standard deviations are shown for n = three biologically independent experiments. P-values were calculated with respect to the DMSO control using the unpaired t-test with Welch’s correction in Prism 9. P-values are two-sided.
# [3] = tested on: HIV-1; settings: HIV-1 infection model, read-out: HIV-1 EC50 ± stdev, cited from earlier work
# [4] = Replicate 1, read-out: HTLV-1 IN strand transfer IC50
# [5] = Replicate 2, read-out: HTLV-1 IN strand transfer IC50
# [6] = Replicate 3, read-out: HTLV-1 IN strand transfer IC50
# [7] = integrase strand-transfer drug titration, n = 3, read-out: HTLV-1 IC50 ± stdev
# T1 sequence (P03362 1168-1462): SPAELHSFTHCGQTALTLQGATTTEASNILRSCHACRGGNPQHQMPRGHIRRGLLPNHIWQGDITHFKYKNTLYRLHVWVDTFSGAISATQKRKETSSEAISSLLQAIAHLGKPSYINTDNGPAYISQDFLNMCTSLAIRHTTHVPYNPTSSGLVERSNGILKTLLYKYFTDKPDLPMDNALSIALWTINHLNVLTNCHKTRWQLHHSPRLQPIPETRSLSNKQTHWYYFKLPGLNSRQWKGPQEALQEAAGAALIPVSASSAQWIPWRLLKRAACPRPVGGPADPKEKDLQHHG
SMILES,HTLV-1 IN strand transfer activity (No drug = 100) ([1]; Replicate 1) [%],HTLV-1 IN strand transfer activity (No drug = 100) ([1]; Replicate 2) [%],HTLV-1 IN strand transfer activity (No drug = 100) ([1]; Replicate 3) [%],"IC50 [1, 4] [nM]","IC50 [1, 5] [nM]","IC50 [1, 6] [nM]","IC50 [1, 7] [nM]",Integrated provirus by Alu-qPCR (DMSO = 100%) ([2]; Replicate 1) [%],Integrated provirus by Alu-qPCR (DMSO = 100%) ([2]; Replicate 2) [%],Integrated provirus by Alu-qPCR (DMSO = 100%) ([2]; Replicate 3) [%],EC50 ([3]; supplementary ref 1) [nM],EC50 ([3]; supplementary ref 14) [nM]
"Nc1c(C(=O)NCc2ccc(F)cc2F)c(=O)n(O)c2ncccc12 [XZ384, 4-amino-N-(2,4-difluorobenzyl)-1-hydroxy-2-oxo-1,2-dihydro-1,8-naphthyridine-3-carboxamide]",12.8154,24.1903,23.5902,142,268,121,210 ± 34,4.1902,0.144,1.628,1.1 ± 0.7,
"Nc1c(C(=O)NCc2ccc(F)cc2F)c(=O)n(O)c2ncc(CCCCCO)cc12 [XZ419, 4-amino-N-(2,4-difluorobenzyl)-1-hydroxy-6-(5-hydroxypentyl)-2-oxo-1,2-dihydro-1,8-naphthyridine-3-carboxamide]",14.8861,26.7311,21.3921,173,249,269,226 ± 21,,,,1.3 ± 0.2,
"Nc1c(C(=O)NCc2ccc(F)cc2F)c(=O)n(O)c2ncc(CCCCCCO)cc12 [XZ426, 4-amino-N-(2,4-difluorobenzyl)-1-hydroxy-6-(6-hydroxyhexyl)-2-oxo-1,2-dihydro-1,8-naphthyridine-3-carboxamide]",14.449,19.5833,19.9322,159,169,175,163 ± 27.9,,,,2.3 ± 0.6,
"COC(=O)CCc1cnc2c(c1)c(N)c(C(=O)NCc1ccc(F)cc1F)c(=O)n2O [XZ434, methyl 3-(5-amino-6-((2,4-difluorobenzyl)carbamoyl)-8-hydroxy-7-oxo-7,8-dihydro-1,8-naphthyridin-3-yl)propanoate]",20.5794,19.7322,15.311,174,217,231,204 ± 34.1,0.3355,0.8375,1.324e-5,,0.67 ± 0.15
"CC(C)NC(=O)/C=C/c1cnc2c(c1)c(N)c(C(=O)NCc1ccc(F)cc1F)c(=O)n2O [XZ452, (E)-4-amino-N-(2,4-difluorobenzyl)-1-hydroxy-6-(3-(isopropylamino)-3-oxoprop-1-en-1-yl)-2-oxo-1,2-dihydro-1,8-naphthyridine-3-carboxamide]",11.3751,23.2017,17.2877,174,162,229,182 ± 44.7,,,,,
"COC(=O)c1c(Nc2ccc(-c3ccc(N)cc3)cc2)c2cccnc2n(O)c1=O [XZ456, methyl 4-((4'-amino-[1,1'-biphenyl]-4-yl)amino)-1-hydroxy-2-oxo-1,2-dihydro-1,8-naphthyridine-3-carboxylate]",112.032,94.791,89.3626,,,,,,,,,
"Nc1ccc(-c2ccc(Nc3cc(=O)n(O)c4ncccc34)cc2)cc1 [XZ460, 4-((4'-amino-[1,1'-biphenyl]-4-yl)amino)-1-hydroxy-1,8-naphthyridin-2(1H)-one]",91.7662,81.7265,81.1342,,,,,,,,,
"COC(=O)c1c(N)c2cccnc2n(O)c1=O [XZ462, methyl 4-amino-1-hydroxy-2-oxo-1,2-dihydro-1,8-naphthyridine-3-carboxylate]",111.483,96.7056,116.696,,,,,,,,,
